This passage reports pest or weed control results from patent US20220132847A1, “CINNOLINIUM COMPOUNDS FOR USE IN A METHOD OF CONTROLLING UNWANTED PLANT GROWTH” (SYNGENTA CROP PROTECTION AG, priority 2019, published 2022).

Assay in all cases: Post-emergence efficacy, glasshouse
Common to all, as to assay type: in vivo

Assay [1] relates to Echinochloa crus-galli (ECHCG). The settings on record: Echinochloa crus-galli, post-emergence, 312 h, evaluated after 13 days, 100=total damage to plant, 0=no damage to plant, read-out: Control of weed species after post-emergence application, ECHCG; for pest or weed control at 1000 g/ha: Application Rate 1000 g/Ha. The method, boiled down: (§1)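 Post-emergence spray on 14-day-old pot plants of the formulated compound (acetone/IF50, 50 g/l stock diluted in water with 0.25% or 1% Empicol ESC70 plus 1% ammonium sulphate). Glasshouse at 24/16° C day/night, 14 h light, 65% humidity; visual damage rated after 13 days, 0 none to 100 total.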

Assay [2] has as its system Chenopodium album (CHEAL). The settings on record: Chenopodium album, post-emergence, 312 h, evaluated after 13 days, 100=total damage to plant, 0=no damage to plant, read-out: Control of weed species after post-emergence application, CHEAL; for pest or weed control at 1000 g/ha: Application Rate 1000 g/Ha. A digest of the protocol: as §1
The subject of a further assay is Eleusine indica (ELEIN). The settings on record: Eleusine indica, post-emergence, 312 h, evaluated after 13 days, 100=total damage to plant, 0=no damage to plant, read-out: Control of weed species after post-emergence application, ELEIN; for pest or weed control at 1000 g/ha: Application Rate 1000 g/Ha. A digest of the protocol:
as §1

The test system of assay [3] is Euphorbia heterophylla (EPHHL). To be noted: Euphorbia heterophylla, post-emergence, 312 h, evaluated after 13 days, 100=total damage to plant, 0=no damage to plant, read-out: Control of weed species after post-emergence application, EPHHL; for pest or weed control at 1000 g/ha: Application Rate 1000 g/Ha. A digest of the protocol:
as §1

Assay [4] deals with Ipomoea hederacea (IPOHE). To be noted: Ipomoea hederacea, post-emergence, 312 h, evaluated after 13 days, 100=total damage to plant, 0=no damage to plant, read-out: Control of weed species after post-emergence application, IPOHE; for pest or weed control at 1000 g/ha: Application Rate 1000 g/Ha. A digest of the protocol:
as §1

Assay [5] relates to Amaranthus palmeri (AMAPA). To be noted: Amaranthus palmeri, post-emergence, 312 h, evaluated after 13 days, 100=total damage to plant, 0=no damage to plant, read-out: Control of weed species after post-emergence application, AMAPA; for pest or weed control at 1000 g/ha: Application Rate 1000 g/Ha. A digest of the protocol: as §1
In assay [6] the test system is Digitaria sanguinalis (DIGSA). To be noted: Digitaria sanguinalis, post-emergence, 312 h, evaluated after 13 days, 100=total damage to plant, 0=no damage to plant, read-out: Control of weed species after post-emergence application, DIGSA; for pest or weed control at 1000 g/ha: Application Rate 1000 g/Ha. The method, boiled down:
as §1

A further assay has as its system Lolium perenne (LOLPE). The settings on record: Lolium perenne, post-emergence, 312 h, evaluated after 13 days, 100=total damage to plant, 0=no damage to plant, read-out: Control of weed species after post-emergence application, LOLPE; for pest or weed control at 1000 g/ha: Application Rate 1000 g/Ha. The method, boiled down:
as §1

A further assay concerns Setaria faberi (SETFA). To be noted: Setaria faberi, post-emergence, 312 h, evaluated after 13 days, 100=total damage to plant, 0=no damage to plant, read-out: Control of weed species after post-emergence application, SETFA; for pest or weed control at 1000 g/ha: Application Rate 1000 g/Ha. A digest of the protocol: as §1

Consider `C[n+]1cc(C(=O)[N-]S(=O)(=O)c2ccc(Cl)s2)c2ccccc2n1` [Compound A39], for which the pest or weed control at 1000 g/ha stood at 20% in assay [1]; 30% in assay [2]; 10% in the assay on Eleusine indica (ELEIN); 20% in assay [3]; 30% in [4]; 80% in assay [5]. Also, the pest or weed control at 1000 g/ha was determined as 10% in assay [6], 0% with Lolium perenne (LOLPE) and 30% in the assay on Setaria faberi (SETFA).

In the case of `COP(=O)([O-])c1c[n+](CCO)nc2ccccc12` [Compound A68, [2-(2-hydroxyethyl)cinnolin-2-ium-4-yl]-methoxy-phosphinate], the pest or weed control at 1000 g/ha in assay [1] stood at 60%; in [2] it was 100%; with Eleusine indica (ELEIN), 100%; in assay [3], 100%; in [4] it was 100%; in [5], 100%. For the same molecule, the pest or weed control at 1000 g/ha in assay [6] came out at 100%; with Lolium perenne (LOLPE) it was 40%; with Setaria faberi (SETFA), 90%.

On to `CC(C)OP(=O)([O-])c1c[n+](C(C)(C)C)nc2ccccc12` [Compound A74], for which the pest or weed control at 500 g/ha in assay [1] (Application Rate 500 g/Ha) turned out to be 10%; in assay [2] (Application Rate 500 g/Ha), 60%; in the assay on Eleusine indica (ELEIN) (Application Rate 500 g/Ha), 60%; in assay [3] (Application Rate 500 g/Ha), 50%; in assay [4] (Application Rate 500 g/Ha), 50%; in [5] (Application Rate 500 g/Ha) it was 100%. Also, the pest or weed control at 500 g/ha in assay [6] (Application Rate 500 g/Ha) amounted to 20%; with Lolium perenne (LOLPE) (Application Rate 500 g/Ha), 30%; with Setaria faberi (SETFA) (Application Rate 500 g/Ha), 20%.

Regarding `CCS(=O)(=O)[N-]C(=O)c1c[n+](C)nc2ccccc12` [Compound A37], the pest or weed control at 1000 g/ha in [1] amounted to 40%; in assay [2], 80%; in the assay with Eleusine indica (ELEIN) it was 70%; in assay [3], 90%; in assay [4], 80%; in assay [5], 100%. For the same molecule, the pest or weed control at 1000 g/ha in assay [6] is 80%; with Lolium perenne (LOLPE), 40%; with Setaria faberi (SETFA), 60%.

Take `C[n+]1cc(C(=O)[N-]S(=O)(=O)C2CC2)c2ccccc2n1` [Compound A12]: the pest or weed control at 1000 g/ha in assay [1] was 30%; in [2], 60%; in the assay with Eleusine indica (ELEIN) it was 30%; in assay [3], 70%; in assay [4] it was 70%; in assay [5] it was 60%. For the same molecule, the pest or weed control at 1000 g/ha is 20% in assay [6], 40% in the assay on Lolium perenne (LOLPE) and 60% in the assay on Setaria faberi (SETFA).

With `CC[n+]1cc(P(=O)([O-])OC)c2ccccc2n1` [Compound A65], the pest or weed control at 1000 g/ha worked out at 50% in assay [1]; 90% in assay [2]; 80% in the assay with Eleusine indica (ELEIN); 100% in [3]; 70% in assay [4]; 90% in assay [5]. The results for the pest or weed control at 1000 g/ha (in assay [6]; in the assay with Lolium perenne (LOLPE); in the assay with Setaria faberi (SETFA)) were 90%, 40% and 80%, respectively.

Consider `Cc1c(C(=O)[O-])c2ccccc2n[n+]1C` [Compound A61, 2,3-dimethylcinnolin-2-ium-4-carboxylate], for which the pest or weed control at 1000 g/ha in assay [1] amounted to 50%; in [2], 100%; in the assay with Eleusine indica (ELEIN), 90%; in assay [3] it was 70%; in assay [4], 100%; in assay [5], 100%. Further, the pest or weed control at 1000 g/ha in assay [6] came to 70%; with Lolium perenne (LOLPE), 10%; in the assay on Setaria faberi (SETFA), 40%.

Turning to `COC(=O)C[n+]1cc(C(=O)[N-]S(C)(=O)=O)c2ccccc2n1` [Compound A15, [2-(2-methoxy-2-oxo-ethyl)cinnolin-2-ium-4-carbonyl]-methylsulfonyl-azanide], the pest or weed control at 1000 g/ha in [1] is 20%; in [2], 30%; in the assay with Eleusine indica (ELEIN), 0%; in assay [3], 30%; in assay [4], 10%; in assay [5], 50%. Moreover, the pest or weed control at 1000 g/ha in assay [6] stood at 0%; in the assay on Lolium perenne (LOLPE), 10%; in the assay with Setaria faberi (SETFA) it was 10%.

For the molecule `C[n+]1cc(C(=O)[O-])c2ccccc2n1` [Compound A1], the pest or weed control at 1000 g/ha in assay [1] came to 20%; in assay [2] it was 100%; in the assay on Eleusine indica (ELEIN), 100%; in assay [3], 70%; in [4], 70%; in [5], 100%. The figures for the pest or weed control at 1000 g/ha (in assay [6]; with Lolium perenne (LOLPE); with Setaria faberi (SETFA)) were 90%, 50% and 30%, respectively.

In the case of `C[n+]1cc(C(=O)[N-]S(=O)(=O)CCC(F)(F)F)c2ccccc2n1` [Compound A43], the pest or weed control at 1000 g/ha turned out to be 30% in assay [1]; 30% in assay [2]; 90% in the assay with Eleusine indica (ELEIN); 90% in assay [3]; 80% in assay [4]; 60% in assay [5]. In addition, the pest or weed control at 1000 g/ha was 70% in assay [6], 20% in the assay on Lolium perenne (LOLPE) and 50% in the assay on Setaria faberi (SETFA).

On to `CONC(=O)c1c[n+](C)nc2ccccc12` [Compound A4, N-methoxy-2-methyl-cinnolin-2-ium-4-carboxamide 2,2,2-trifluoroacetate], for which the pest or weed control at 1000 g/ha in [1] turned out to be 10%; in assay [2], 40%; with Eleusine indica (ELEIN) it was 20%; in [3], 50%; in [4], 20%; in [5], 10%. For the same molecule, the pest or weed control at 1000 g/ha turned out to be 0% in assay [6], 0% in the assay with Lolium perenne (LOLPE) and 10% in the assay on Setaria faberi (SETFA).
